Measured values taken from patent publication US20180042891A1, “Cancer Cell Apoptosis” (e-Therapeutics plc, priority 2009, published 2018).

Assays:
[1] = test system: HCT116 colon cancer cells; test: Caspase 3/7 apoptosis and CellTiter-Blue cell viability assay, 24 hour; format: cell-based; details: HCT116, 24 hours incubation
Method: (§1) Assay was performed at a 24 hour timepoint on 3 melanoma lines (A375, G-361, WM266-4) 2 breast cancer lines (MCF7, MDA-MB-231), fibroblast (46BR.1G1), colon cancer (HCT116), prostate cancer (PC-3), glioblastoma (U373) and non-small cell lung cancer (NSCLC) (DMS-114)
(§2) The above cell lines were maintained in RPMI 1640 culture medium (Sigma, UK) containing 10% (v/v) heat inactivated foetal bovine serum (Sigma, UK) and 2 mM […] at 37° C. in 5% humidified CO2. Cells were harvested, washed, re-suspended into growth medium and counted (Beckman-Coulter Vi-CELL XR). Cells were plated onto the middle 240 wells of 384 tissue culture plates at 1.6×lO^5 to 2.4×lO^5 cells/ml in 12.5 μl/well aliquots. 50 μl of growth media was aliquoted into the outer wells. 2 plates were prepared per cell line. Plates were incubated overnight at 37° C., in 5% humidified CO2.
(§3) Dexanabinol was prepared in growth medium at 2 times the final assay concentration at 125, 31.3, 7.81, 2.00, 0.49, 0.12, 0.031 and O.OO8 μM (DMSO concentration was kept constant across the dilution range at 0.5%).
(§4) Cisplatin was used as a positive control. The final assays concentrations were 10, 2.5, 0.63, 0.156, 0.039, 0.010, 0.002 and 0.0006 μg/ml. […] 12.5 μl of growth media was added to the media control wells. The plates were incubated for 24 hours at 37° C., in 5% humidified CO2.
(§5) Caspase 3/7 levels were assessed by Apo-ONE® Homogeneous Caspase-3/7 assay kit. Fluorescence was measured using a FlexStation® II^384 plate reader at 1, 2, 3 and 4 hours after addition of the caspase substrate. The 4 hour readings were used for analysis.
(§6) The cell viability assay was performed in parallel on the same plate for each line using CellTiter-Blue® (Promega) reagent. Briefly, 25 μl of CellTiter-Blue® (Promega) reagent was added to each well. The plates were shaken for 1 minute at 500 rpm and then incubated at 37° C., 5% CO2 for 4 hours.

[2] = test system: A375 melanoma cells; test: as above; format: cell-based; details: A375, 24 hours incubation
Method: as §1, §2, §3, §4, §5, §6

[3] = test system: DMS-114 NSCLC cells; test: as above; format: cell-based; details: DMS-114, 24 hours incubation
Method: as §1, §2, §3, §4, §5, §6

[4] = test system: U373 glioblastoma cells; test: as above; format: cell-based; details: U373, 24 hours incubation
Method: as §1, §2, §3, §4, §5, §6

[5] = test system: MCF7 breast cancer cells; test: as above; format: cell-based; details: MCF7, 24 hours incubation
Method: as §1, §2, §3, §4, §5, §6

[6] = test system: MDA-MB-231 breast cancer cells; test: as above; format: cell-based, human; details: MDA-MB-231, 24 hours incubation
Method: as §1, §2, §3, §4, §5, §6

[7] = test system: G-361 melanoma cells; test: as above; format: cell-based, human; details: G-361, 24 hours incubation
Method: as §1, §2, §3, §4, §5, §6

[8] = test system: WM266-4 melanoma cells; test: as above; format: cell-based, human; details: WM266-4, 24 hours incubation
Method: as §1, §2, §3, §4, §5, §6

[9] = test system: PC-3 prostate cancer cells; test: as above; format: cell-based, human; details: PC-3, 24 hours incubation
Method: as §1, §2, §3, §4, §5, §6

[10] = test system: 46Br.1G1 fibroblast cells; test: as above; format: cell-based, human; details: 46Br.1G1, 24 hours incubation
Method: as §1, §2, §3, §4, §5, §6

[11] = test system: Panc-1 cells; set-up: dose or concentration left out as unconfirmed; details: at this same concentration; cited from earlier work
[12] = test system: melanoma cell lines (A375, Malme-3M, UACC62); details: previous studies, WO '700; read-out: decreased growth, IC50 value; cited from earlier work
[13] = biological target: CDK2 (Homo sapiens, UniProt P24941); test: Direct assay against CDK2; format: biochemical; details: when directly assayed
[14] = CellTiter-Blue cell viability (cytotoxicity), whole panel of cell lines; format: cell-based; details: human; at the highest concentration; read-out: loss in cell viability
Method: as §1, §2, §3
(§7) The final assays concentrations were 10, 2.5, 0.63, 0.156, 0.039, 0.010, 0.002 and 0.0006 μg/ml. […] 12.5 μl of growth media was added to the media control wells. The plates were incubated for 24 hours at 37° C., in 5% humidified CO2.
as §6

[15] = test system: panel of cancer cell lines and a human fibroblast line; test: as above; format: cell-based
Method: as §1, §2, §3, §7, §6

[16] = biological target: CDK5 (Homo sapiens, UniProt Q00535); test: Direct assay against CDK5; format: biochemical; details: when directly assayed
[17] = test system: panel of cancer cell lines and a human fibroblast line; test: Apo-ONE Caspase-3/7 apoptosis assay, whole panel of cell lines; format: cell-based
Method: as §1, §2, §3
Cisplatin was used as a positive control. […]
as §5

[18] = test system: Aspc-1; set-up: dose or concentration left out as unconfirmed; details: cited from earlier work

Chain of CDK5 (Q00535 whole entry, species assumed): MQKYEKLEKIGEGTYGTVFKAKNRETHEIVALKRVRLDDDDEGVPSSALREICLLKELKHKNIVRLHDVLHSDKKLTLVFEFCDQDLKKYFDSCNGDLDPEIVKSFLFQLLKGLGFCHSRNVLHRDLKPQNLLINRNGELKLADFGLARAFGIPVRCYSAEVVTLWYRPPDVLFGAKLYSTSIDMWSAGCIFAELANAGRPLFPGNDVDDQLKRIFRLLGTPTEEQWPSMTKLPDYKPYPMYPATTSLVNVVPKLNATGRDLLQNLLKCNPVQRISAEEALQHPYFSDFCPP
Chain of CDK5 (Q15078 99-307 partner limits assumed, species assumed): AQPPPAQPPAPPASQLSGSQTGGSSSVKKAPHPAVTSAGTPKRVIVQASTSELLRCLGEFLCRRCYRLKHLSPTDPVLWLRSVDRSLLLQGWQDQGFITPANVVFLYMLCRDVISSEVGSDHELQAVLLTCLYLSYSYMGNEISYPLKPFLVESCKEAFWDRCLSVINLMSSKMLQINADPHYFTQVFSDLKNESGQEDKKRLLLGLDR

N.N.[Cl][Pt][Cl] [Cisplatin, reference compound]
IC50 [1]: 29.5 µM
Rank: apoptosis induction and decrease in proliferation [1]: ** (moderate apoptosis induction and decrease in proliferation (35-70%))
IC50 [2]: 21.8 µM
Rank: apoptosis induction and decrease in proliferation [2]: ** (moderate apoptosis induction and decrease in proliferation (35-70%))
IC50 [3]: ~40.2 µM
Rank: apoptosis induction and decrease in proliferation [3]: * (weak apoptosis induction and decrease in proliferation (<35%))
IC50 [4]: > 33 µM
Rank: apoptosis induction and decrease in proliferation [4]: * (weak apoptosis induction and decrease in proliferation (<35%))
IC50 [5]: 40.6 µM
Rank: apoptosis induction and decrease in proliferation [5]: ** (moderate apoptosis induction and decrease in proliferation (35-70%))
IC50 [6]: > 33 µM
Rank: apoptosis induction and decrease in proliferation [6]: * (weak apoptosis induction and decrease in proliferation (<35%))
IC50 [7]: 18 µM
Rank: apoptosis induction and decrease in proliferation [7]: ** (moderate apoptosis induction and decrease in proliferation (35-70%))
IC50 [8]: 62 µM
Rank: apoptosis induction and decrease in proliferation [8]: * (weak apoptosis induction and decrease in proliferation (<35%))
IC50 [9]: ~58 µM
Rank: apoptosis induction and decrease in proliferation [9]: * (weak apoptosis induction and decrease in proliferation (<35%))
IC50 [10]: 21.5 µM
Rank: apoptosis induction and decrease in proliferation [10]: ** (moderate apoptosis induction and decrease in proliferation (35-70%))

CCCCCCC(C)(C)c1cc(O)c2c(c1)OC(C)(C)[C@H]1CC=C(CO)C[C@H]21 [Dexanabinol, 1, 1 dimethyl heptyl-(3S,4S)-7-hydroxy-Δ^6-tetrahydrocannabinol]
Rank: apoptosis induction and decrease in proliferation [1]: *** (good apoptosis induction and decrease in proliferation (>70%))
IC50 ([1]; Homo sapiens, HCT-116): 22.3 µM
Rank: apoptosis induction and decrease in proliferation [2]: ** (moderate apoptosis induction and decrease in proliferation (35-70%))
IC50 ([2]; Homo sapiens, A-375): 19.2 µM
Rank: apoptosis induction and decrease in proliferation [3]: * (weak apoptosis induction and decrease in proliferation (<35%))
IC50 ([3]; Homo sapiens): 10 to 50 µM
IC50 ([4]; Homo sapiens, U373 MG): 10 to 50 µM
Rank: apoptosis induction and decrease in proliferation [4]: * (weak apoptosis induction and decrease in proliferation (<35%))
IC50 ([5]; Homo sapiens): 16.2 µM
Rank: apoptosis induction and decrease in proliferation [5]: *** (good apoptosis induction and decrease in proliferation (>70%))
Panc-1 cells proliferation inhibited [11]: 26%
IC50 [12]: 10 to 20 µM
direct activity against CDK2 [13]: no significant direct activity
cytotoxicity at 24 h, 62.5 µM [14]: 100%
IC50 ([15]; Homo sapiens, Fibroblast, read-out: cytotoxic response, IC50 values): 10 to 25 µM
concentration giving dose-dependent decrease in cell viability ([15]; all cell lines): > 10^−5 M
direct activity against CDK5 [16]: no significant direct activity
concentrations at which pro-apoptotic effect and effect on cell number were shown [17]: ≥ 10 µM
concentration of peak response in apoptosis ([17]; dropped at the highest concentration of 10 μM): 2.5 µM
IC50 ([6]; Homo sapiens): 10 to 50 µM
Rank: apoptosis induction and decrease in proliferation [6]: ** (moderate apoptosis induction and decrease in proliferation (35-70%))
Rank: apoptosis induction and decrease in proliferation [7]: *** (good apoptosis induction and decrease in proliferation (>70%))
IC50 ([7]; Homo sapiens): 11 µM
IC50 ([8]; Homo sapiens, WM 266-4): 20.9 µM
Rank: apoptosis induction and decrease in proliferation [8]: ** (moderate apoptosis induction and decrease in proliferation (35-70%))
IC50 ([9]; Homo sapiens): 19.9 µM
Rank: apoptosis induction and decrease in proliferation [9]: *** (good apoptosis induction and decrease in proliferation (>70%))
Rank: apoptosis induction and decrease in proliferation [10]: *** (good apoptosis induction and decrease in proliferation (>70%))
IC50 ([10]; Homo sapiens, Fibroblast): 23.1 µM
Aspc-1 proliferation [18]: not affected
